Among the test systems are CCRF-CEM leukemia; HCT-116 colon; M14 melanoma; NCI-H460 lung; OVCAR-3 ovarian; PC-3 prostate; SF-295 CNS; SK-MEL-5 melanoma; U251 CNS; UACC-257 melanoma.
Holding throughout (experiment): inhibition of tumour cell growth, NCI panel, 48 h

“And” between values parts separate entries of the source, which are not always exact repeats. Equal entries are not always repeated.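 Where inhibition never reached the appropriate level, the endpoint shown equals the highest concentration tested. Otherwise, values were interpolated linearly from a five-concentration, 48-hour dose response in 96-well plates. GI50 marks 50% less growth. TGI: total growth inhibition.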

Regarding `COc1ccc(-c2ccc3ncc4c(c3c2)n(-c2ccc(N3CCNCC3)c(C(F)(F)F)c2)c(=O)n4C)cn1`, the GI50 was < 0.01 µM and 0.00664 µM in the assay with CCRF-CEM leukemia; < 0.0143 µM and 0.00853 µM with HCT-116 colon; 0.00455 µM in the assay on M14 melanoma; < 0.01 µM and 0.00389 µM in the assay with NCI-H460 lung; < 0.01 µM and 0.00596 µM with OVCAR-3 ovarian; < 0.01 µM and 0.00281 µM in the assay on PC-3 prostate. The GI50 in the assay on SF-295 CNS is < 0.01 µM and 0.00331 µM; with SK-MEL-5 melanoma it was 0.0131 µM and 0.0102 µM; in the assay on U251 CNS, < 0.01 µM and 0.00869 µM; in the assay with UACC-257 melanoma, 0.0169 µM and 0.021 µM. Also, the TGI is 0.282 µM and 0.144 µM in the assay with CCRF-CEM leukemia; 0.165 µM and 0.142 µM in the assay on HCT-116 colon; 0.0621 µM with M14 melanoma; 0.223 µM and 0.141 µM with NCI-H460 lung; 0.341 µM and 0.497 µM in the assay on OVCAR-3 ovarian; 0.799 µM and 1.12 µM in the assay with PC-3 prostate. Further, the TGI is 0.0284 µM and 0.032 µM with SF-295 CNS; 0.0774 µM and 0.038 µM in the assay on SK-MEL-5 melanoma; 0.13 µM and 0.429 µM in the assay with U251 CNS; 0.11 µM and 0.118 µM in the assay on UACC-257 melanoma.

Regarding `CSC1=Nc2c(c(C)c(-c3ccccc3)n2CCCCl)C2=NC(=O)CN12`, the GI50 with CCRF-CEM leukemia is 5.08 µM; in the assay with HCT-116 colon it was 3.19 µM; in the assay on M14 melanoma, 3.32 µM; with NCI-H460 lung, 3.7 µM; in the assay on OVCAR-3 ovarian, 8.28 µM; with PC-3 prostate, 8.68 µM. Further, the GI50 is 4.11 µM with SF-295 CNS, 3.49 µM in the assay on SK-MEL-5 melanoma, 3.92 µM with U251 CNS and 12.5 µM with UACC-257 melanoma. The TGI is greater than 100 µM in the assay on CCRF-CEM leukemia; 47.7 µM in the assay on HCT-116 colon; 15.2 µM in the assay on M14 melanoma; 15 µM with NCI-H460 lung; 36.2 µM with OVCAR-3 ovarian; greater than 100 µM in the assay on PC-3 prostate. In addition, the TGI in the assay on SF-295 CNS was determined as 26.8 µM; in the assay with SK-MEL-5 melanoma, 14.1 µM; with U251 CNS, 16.4 µM; with UACC-257 melanoma, 28.4 µM.

Turning to `NC(=O)c1ccc2nc(-c3ccc(C4(N)CCC4)cc3)c(-c3ccccc3)n2n1`, the GI50 was 1.41 µM in the assay with CCRF-CEM leukemia; 10.2 µM in the assay with HCT-116 colon; 14.3 µM in the assay with M14 melanoma; 2.15 µM in the assay on NCI-H460 lung; 0.817 µM with OVCAR-3 ovarian; 0.183 µM with PC-3 prostate. Besides, the GI50 is 1.26 µM in the assay with SF-295 CNS, 10.9 µM in the assay with SK-MEL-5 melanoma, 6.27 µM in the assay with U251 CNS and 13.2 µM with UACC-257 melanoma. The TGI was 44.4 µM in the assay with CCRF-CEM leukemia; 22.6 µM with HCT-116 colon; 28.6 µM in the assay on M14 melanoma; 19.4 µM in the assay with NCI-H460 lung; 22 µM with OVCAR-3 ovarian; 20.1 µM in the assay with PC-3 prostate. Besides, the TGI is 15.4 µM with SF-295 CNS, 23.3 µM in the assay with SK-MEL-5 melanoma, 21.5 µM with U251 CNS and 29.7 µM in the assay with UACC-257 melanoma.

For the compound `COc1ccc(S(=O)(=O)NC2=NCCN2C(=S)SN2CCn3c2nsc3=S)cc1OC`, the GI50 was 11.3 µM in the assay on CCRF-CEM leukemia; 19.2 µM in the assay on HCT-116 colon; 20.4 µM in the assay with M14 melanoma; 28.1 µM in the assay with NCI-H460 lung; 21 µM in the assay with OVCAR-3 ovarian; 27.1 µM in the assay with PC-3 prostate. Further, the GI50 in the assay on SF-295 CNS is 20.9 µM; in the assay on SK-MEL-5 melanoma, 25.3 µM; with U251 CNS, 22.3 µM; in the assay on UACC-257 melanoma it was 25.1 µM. Moreover, the TGI with CCRF-CEM leukemia was 30.9 µM; in the assay with HCT-116 colon, 40 µM; with M14 melanoma, 48.8 µM; in the assay with NCI-H460 lung it was greater than 100 µM; with OVCAR-3 ovarian, 47 µM; in the assay on PC-3 prostate, 94 µM. Besides, the TGI in the assay on SF-295 CNS stood at 56.2 µM; in the assay with SK-MEL-5 melanoma, 74.1 µM; in the assay on U251 CNS, 53.4 µM; with UACC-257 melanoma, 82.9 µM.

In the case of `COc1cc(/C=C/C(=O)NC[C@]2(O)CCC3C4CCc5cc(O)ccc5C4CCC32C)ccc1O` (stereo not given in full), the GI50 in the assay with CCRF-CEM leukemia is 3.18 µM; in the assay on HCT-116 colon, 7.97 µM; in the assay with M14 melanoma it was 4.99 µM; in the assay on NCI-H460 lung it was 9.47 µM; with OVCAR-3 ovarian it was 10.3 µM; in the assay on PC-3 prostate, 5.2 µM. Also, the GI50 with SF-295 CNS is 6.71 µM; with SK-MEL-5 melanoma it was 2.91 µM; in the assay on U251 CNS it was 8.47 µM; in the assay on UACC-257 melanoma it was 39.5 µM. Further, the TGI in the assay on CCRF-CEM leukemia is 86.1 µM; in the assay on HCT-116 colon, 49.3 µM; in the assay on M14 melanoma it was 37.6 µM; in the assay on NCI-H460 lung, greater than 100 µM; with OVCAR-3 ovarian, greater than 100 µM; in the assay with PC-3 prostate it was greater than 100 µM. The TGI in the assay on SF-295 CNS is greater than 100 µM; in the assay with SK-MEL-5 melanoma it was 19.3 µM; in the assay with U251 CNS, greater than 100 µM; in the assay with UACC-257 melanoma, greater than 100 µM.

In the case of `Cc1c2cnccc2c(C)c2c1c1cc(C(=O)O)ccc1n2C`, the GI50 in the assay on CCRF-CEM leukemia is 1.06 µM; in the assay on HCT-116 colon it was 0.373 µM; with M14 melanoma it was 1.3 µM; in the assay with NCI-H460 lung, 0.874 µM; in the assay with OVCAR-3 ovarian, 1.35 µM; with PC-3 prostate it was 1.68 µM. For the same compound, the GI50 in the assay on SF-295 CNS is 1.16 µM; in the assay with SK-MEL-5 melanoma, 0.897 µM; in the assay on U251 CNS, 0.918 µM; with UACC-257 melanoma it was 1.12 µM. Also, the TGI with CCRF-CEM leukemia is 6.6 µM; with HCT-116 colon, greater than 100 µM; in the assay on M14 melanoma it was 3.74 µM; with NCI-H460 lung, 8.46 µM; in the assay on OVCAR-3 ovarian, 5.68 µM; with PC-3 prostate it was 8.09 µM. Besides, the TGI in the assay on SF-295 CNS was found to be 6.65 µM; with SK-MEL-5 melanoma it was 2.44 µM; in the assay on U251 CNS it was 7.95 µM; in the assay on UACC-257 melanoma, 4.84 µM.

As for `CCN1/C(=C/C=C/C=C/c2sc3ccccc3[n+]2CC)Sc2ccccc21`, the GI50 is 0.353 µM in the assay on CCRF-CEM leukemia; 0.181 µM in the assay on HCT-116 colon; 0.416 µM with M14 melanoma; 0.2 µM in the assay on NCI-H460 lung; 0.331 µM with OVCAR-3 ovarian; 0.243 µM in the assay with PC-3 prostate. Moreover, the GI50 was 0.153 µM with SF-295 CNS, 0.314 µM with SK-MEL-5 melanoma, 0.234 µM in the assay with U251 CNS and 0.475 µM in the assay with UACC-257 melanoma. The TGI in the assay on CCRF-CEM leukemia was greater than 21.8 µM; in the assay on HCT-116 colon it was 0.828 µM; in the assay on M14 melanoma it was 1.49 µM; in the assay on NCI-H460 lung it was 1.06 µM; in the assay on OVCAR-3 ovarian, 1.18 µM; with PC-3 prostate it was 1.39 µM. The TGI with SF-295 CNS was 0.508 µM; in the assay on SK-MEL-5 melanoma it was 1.42 µM; with U251 CNS it was 1.54 µM; in the assay on UACC-257 melanoma, 2.94 µM.

For the origin of these results see PubChem BioAssay (NCI).
